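Following 48 hours of exposure in 96-well plates, responses at five concentrations were used to interpolate endpoints linearly. The concentration for 50% growth inhibition is given as GI50. TGI: total growth inhibition.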
How the values were obtained:
Experiment in all cases: growth of human tumour cells (NCI), 48 h
OVCAR-8 ovarian = test system: OVCAR-8 ovarian
SF-295 CNS = test system: SF-295 CNS
SW-620 colon = test system: SW-620 colon
OVCAR-3 ovarian = test system: OVCAR-3 ovarian
SK-MEL-5 melanoma = test system: SK-MEL-5 melanoma
A549 NSCLC = test system: A549 NSCLC
HCT-15 colon = test system: HCT-15 colon
CCRF-CEM leukemia = test system: CCRF-CEM leukemia
SK-MEL-28 melanoma = test system: SK-MEL-28 melanoma
NCI-H460 lung = test system: NCI-H460 lung
SK-MEL-2 melanoma = test system: SK-MEL-2 melanoma
MALME-3M melanoma = test system: MALME-3M melanoma
PC-3 prostate = test system: PC-3 prostate
DU-145 prostate = test system: DU-145 prostate
TK-10 renal = test system: TK-10 renal
NCI-H226 lung = test system: NCI-H226 lung
SF-268 CNS = test system: SF-268 CNS
HOP-92 NSCLC = test system: HOP-92 NSCLC
MDA-MB-231 breast = test system: MDA-MB-231 breast
MDA-MB-435 = test system: MDA-MB-435
RPMI-8226 leukemia = test system: RPMI-8226 leukemia
HCT-116 colon = test system: HCT-116 colon
U251 CNS = test system: U251 CNS
HCC-2998 colon = test system: HCC-2998 colon
HT29 colon = test system: HT29 colon
IGROV1 ovarian = test system: IGROV1 ovarian
NCI-H23 lung = test system: NCI-H23 lung
786-0 renal = test system: 786-0 renal
MCF7 breast = test system: MCF7 breast
EKVX NSCLC = test system: EKVX NSCLC
NCI-H522 lung = test system: NCI-H522 lung
SF-539 CNS = test system: SF-539 CNS
SN12C renal = test system: SN12C renal
HOP-62 NSCLC = test system: HOP-62 NSCLC
UACC-62 melanoma = test system: UACC-62 melanoma
T-47D breast = test system: T-47D breast
COLO 205 colon = test system: COLO 205 colon
M14 melanoma = test system: M14 melanoma
MOLT-4 leukemia = test system: MOLT-4 leukemia
ACHN renal = test system: ACHN renal
UO-31 renal = test system: UO-31 renal
HS 578T breast = test system: HS 578T breast
KM12 colon = test system: KM12 colon
HL-60(TB) leukemia = test system: HL-60(TB) leukemia
LOX IMVI melanoma = test system: LOX IMVI melanoma
BT-549 breast = test system: BT-549 breast
SK-OV-3 ovarian = test system: SK-OV-3 ovarian
SR leukemia = test system: SR leukemia
CAKI-1 renal = test system: CAKI-1 renal
OVCAR-4 ovarian = test system: OVCAR-4 ovarian
A498 renal = test system: A498 renal
OVCAR-5 ovarian = test system: OVCAR-5 ovarian
K-562 leukemia = test system: K-562 leukemia
UACC-257 melanoma = test system: UACC-257 melanoma
SNB-19 CNS = test system: SNB-19 CNS
NCI/ADR-RES ovarian = test system: NCI/ADR-RES ovarian
RXF 393 renal = test system: RXF 393 renal
SNB-75 CNS = test system: SNB-75 CNS

S=c1ssnc1-c1ccccn1
GI50 (OVCAR-8 ovarian): 3.17 µM | TGI (OVCAR-8 ovarian): 23 µM | GI50 (SF-295 CNS): 5.17 µM | TGI (SF-295 CNS): 24.9 µM | GI50 (SW-620 colon): 2.72 µM | TGI (SW-620 colon): 14.5 µM | GI50 (OVCAR-3 ovarian): 3.21 µM | TGI (OVCAR-3 ovarian): 17.8 µM | GI50 (SK-MEL-5 melanoma): 8.81 µM | TGI (SK-MEL-5 melanoma): > 37.6 µM | GI50 (A549 NSCLC): 8.92 µM | TGI (A549 NSCLC): 37.9 µM | GI50 (HCT-15 colon): 2.2 µM | TGI (HCT-15 colon): 15.7 µM | GI50 (CCRF-CEM leukemia): 1.27 µM | TGI (CCRF-CEM leukemia): 4.24 µM | GI50 (SK-MEL-28 melanoma): 2.87 µM | TGI (SK-MEL-28 melanoma): 13 µM | GI50 (NCI-H460 lung): 1.82 µM | TGI (NCI-H460 lung): 11.6 µM | GI50 (SK-MEL-2 melanoma): 1.88 µM | TGI (SK-MEL-2 melanoma): 5.73 µM | GI50 (MALME-3M melanoma): 7.77 µM | TGI (MALME-3M melanoma): 36.1 µM | GI50 (PC-3 prostate): 3 µM | TGI (PC-3 prostate): > 34.6 µM | GI50 (DU-145 prostate): 1.34 µM | TGI (DU-145 prostate): 13.8 µM | GI50 (TK-10 renal): 5.04 µM | TGI (TK-10 renal): 32.4 µM | GI50 (NCI-H226 lung): 7.08 µM | TGI (NCI-H226 lung): 25.1 µM | GI50 (SF-268 CNS): 2.71 µM | TGI (SF-268 CNS): 20.1 µM | GI50 (HOP-92 NSCLC): 1.67 µM | TGI (HOP-92 NSCLC): 6.73 µM | GI50 (MDA-MB-231 breast): 3.44 µM | TGI (MDA-MB-231 breast): 22 µM | GI50 (MDA-MB-435): 3.28 µM | TGI (MDA-MB-435): 16.3 µM | GI50 (RPMI-8226 leukemia): 2.58 µM | TGI (RPMI-8226 leukemia): 29.3 µM | GI50 (HCT-116 colon): 1.24 µM | TGI (HCT-116 colon): > 20.1 µM | GI50 (U251 CNS): 4.63 µM | TGI (U251 CNS): 33.2 µM | GI50 (HCC-2998 colon): 3.4 µM | TGI (HCC-2998 colon): 12.7 µM | GI50 (HT29 colon): 5.28 µM | TGI (HT29 colon): > 40.7 µM | GI50 (IGROV1 ovarian): 1.81 µM | TGI (IGROV1 ovarian): 11 µM | GI50 (NCI-H23 lung): 3.77 µM | TGI (NCI-H23 lung): 18.4 µM | GI50 (786-0 renal): 2.54 µM | TGI (786-0 renal): > 25.4 µM | GI50 (MCF7 breast): 2.84 µM | TGI (MCF7 breast): > 35.9 µM | GI50 (EKVX NSCLC): 5.64 µM | TGI (EKVX NSCLC): 22 µM | GI50 (NCI-H522 lung): 1.84 µM | TGI (NCI-H522 lung): 4.12 µM | GI50 (SF-539 CNS): 2.52 µM | TGI (SF-539 CNS): 15.1 µM | GI50 (SN12C renal): 5.91 µM | TGI (SN12C renal): 32 µM | GI50 (HOP-62 NSCLC): 3.83 µM | TGI (HOP-62 NSCLC): 27.9 µM | GI50 (UACC-62 melanoma): 5.31 µM | TGI (UACC-62 melanoma): 21.1 µM | GI50 (T-47D breast): 5.59 µM | TGI (T-47D breast): > 55.5 µM | GI50 (COLO 205 colon): 3.96 µM | TGI (COLO 205 colon): 17.8 µM | GI50 (M14 melanoma): 2.58 µM | TGI (M14 melanoma): 19.6 µM | GI50 (MOLT-4 leukemia): 1.27 µM | TGI (MOLT-4 leukemia): 4.58 µM | GI50 (ACHN renal): 2.25 µM | TGI (ACHN renal): 14.7 µM | GI50 (UO-31 renal): 3.51 µM | TGI (UO-31 renal): 22.2 µM | GI50 (HS 578T breast): 2.15 µM | TGI (HS 578T breast): 7.86 µM | GI50 (KM12 colon): 3.72 µM | TGI (KM12 colon): 15.4 µM | GI50 (HL-60(TB) leukemia): 1.37 µM | TGI (HL-60(TB) leukemia): 4.65 µM | GI50 (LOX IMVI melanoma): 2.54 µM | TGI (LOX IMVI melanoma): 12.1 µM | GI50 (BT-549 breast): 6.38 µM | TGI (BT-549 breast): 28.7 µM | GI50 (SK-OV-3 ovarian): 12.8 µM | TGI (SK-OV-3 ovarian): > 86.9 µM | GI50 (SR leukemia): 0.521 µM | TGI (SR leukemia): > 21.5 µM | GI50 (CAKI-1 renal): 3.07 µM | TGI (CAKI-1 renal): 16.3 µM | GI50 (OVCAR-4 ovarian): 9.36 µM | TGI (OVCAR-4 ovarian): > 100 µM | GI50 (A498 renal): 6.8 µM | TGI (A498 renal): 31.8 µM | GI50 (OVCAR-5 ovarian): 5.38 µM | TGI (OVCAR-5 ovarian): 25.1 µM | GI50 (K-562 leukemia): 1.4 µM | TGI (K-562 leukemia): 16.2 µM | GI50 (UACC-257 melanoma): 3.1 µM | TGI (UACC-257 melanoma): 8.47 µM | GI50 (SNB-19 CNS): 11.2 µM | TGI (SNB-19 CNS): > 94.8 µM | GI50 (NCI/ADR-RES ovarian): 3.84 µM | TGI (NCI/ADR-RES ovarian): 39.7 µM | GI50 (RXF 393 renal): 3.05 µM | TGI (RXF 393 renal): 6.47 µM | GI50 (SNB-75 CNS): 3.13 µM | TGI (SNB-75 CNS): > 38.6 µM

From PubChem BioAssay (NCI)
